Among the data in US20210300940A1 (Merck Patent GmbH, priority 2018, published 2021) are IC50 values, retold here.

Where a name gives a salt, the structure may show the parent alone.

For one assay, the target named is T1, TLR8 (Homo sapiens, UniProt Q9NR97).
T1 construct: expressed in transfected cells; host or cells: HEK/293 reporter cells (NF-kB luciferase)
T1 sequence (Q9NR97 27-1041): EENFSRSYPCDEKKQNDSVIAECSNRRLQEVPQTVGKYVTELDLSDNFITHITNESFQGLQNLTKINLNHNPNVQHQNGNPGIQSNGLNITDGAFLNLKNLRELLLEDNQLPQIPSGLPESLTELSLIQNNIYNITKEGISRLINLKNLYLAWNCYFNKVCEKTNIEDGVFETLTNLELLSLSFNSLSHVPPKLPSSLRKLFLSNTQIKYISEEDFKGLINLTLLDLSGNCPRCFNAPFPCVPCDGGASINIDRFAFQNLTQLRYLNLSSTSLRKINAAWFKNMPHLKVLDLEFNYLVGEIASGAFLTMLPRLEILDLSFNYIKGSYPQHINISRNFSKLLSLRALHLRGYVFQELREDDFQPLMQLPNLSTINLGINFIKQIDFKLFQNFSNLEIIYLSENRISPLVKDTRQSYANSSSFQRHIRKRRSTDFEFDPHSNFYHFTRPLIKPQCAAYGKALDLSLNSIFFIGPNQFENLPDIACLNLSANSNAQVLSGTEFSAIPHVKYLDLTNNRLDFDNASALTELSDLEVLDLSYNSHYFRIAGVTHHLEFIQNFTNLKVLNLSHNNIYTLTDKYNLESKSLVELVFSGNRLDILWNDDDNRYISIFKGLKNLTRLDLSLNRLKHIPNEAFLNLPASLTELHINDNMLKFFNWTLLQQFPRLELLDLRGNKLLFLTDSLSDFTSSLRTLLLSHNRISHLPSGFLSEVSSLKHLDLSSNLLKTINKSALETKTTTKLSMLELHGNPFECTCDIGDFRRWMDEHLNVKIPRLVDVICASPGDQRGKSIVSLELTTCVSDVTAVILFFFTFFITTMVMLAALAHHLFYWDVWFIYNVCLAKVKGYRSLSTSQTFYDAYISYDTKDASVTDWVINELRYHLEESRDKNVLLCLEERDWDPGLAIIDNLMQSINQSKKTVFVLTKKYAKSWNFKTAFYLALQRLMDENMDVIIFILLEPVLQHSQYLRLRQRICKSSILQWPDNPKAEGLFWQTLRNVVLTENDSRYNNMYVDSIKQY
As to the kind of experiment: HEK/293 TLR8 Cell Assay. The conditions noted are these: HEK cells, R848 agonist 30 uM final concentration, Steady-Glo readout; read-out: TLR8 potency. Format: cell-based.

The next assay concerns the target T2, TLR7 (Homo sapiens, UniProt Q9NYK1).
T2 construct: expressed in transfected cells; host or cells: HEK/293 cells carrying TLR7 and an NF-kB luciferase reporter
T2 sequence (Q9NYK1 27-1049): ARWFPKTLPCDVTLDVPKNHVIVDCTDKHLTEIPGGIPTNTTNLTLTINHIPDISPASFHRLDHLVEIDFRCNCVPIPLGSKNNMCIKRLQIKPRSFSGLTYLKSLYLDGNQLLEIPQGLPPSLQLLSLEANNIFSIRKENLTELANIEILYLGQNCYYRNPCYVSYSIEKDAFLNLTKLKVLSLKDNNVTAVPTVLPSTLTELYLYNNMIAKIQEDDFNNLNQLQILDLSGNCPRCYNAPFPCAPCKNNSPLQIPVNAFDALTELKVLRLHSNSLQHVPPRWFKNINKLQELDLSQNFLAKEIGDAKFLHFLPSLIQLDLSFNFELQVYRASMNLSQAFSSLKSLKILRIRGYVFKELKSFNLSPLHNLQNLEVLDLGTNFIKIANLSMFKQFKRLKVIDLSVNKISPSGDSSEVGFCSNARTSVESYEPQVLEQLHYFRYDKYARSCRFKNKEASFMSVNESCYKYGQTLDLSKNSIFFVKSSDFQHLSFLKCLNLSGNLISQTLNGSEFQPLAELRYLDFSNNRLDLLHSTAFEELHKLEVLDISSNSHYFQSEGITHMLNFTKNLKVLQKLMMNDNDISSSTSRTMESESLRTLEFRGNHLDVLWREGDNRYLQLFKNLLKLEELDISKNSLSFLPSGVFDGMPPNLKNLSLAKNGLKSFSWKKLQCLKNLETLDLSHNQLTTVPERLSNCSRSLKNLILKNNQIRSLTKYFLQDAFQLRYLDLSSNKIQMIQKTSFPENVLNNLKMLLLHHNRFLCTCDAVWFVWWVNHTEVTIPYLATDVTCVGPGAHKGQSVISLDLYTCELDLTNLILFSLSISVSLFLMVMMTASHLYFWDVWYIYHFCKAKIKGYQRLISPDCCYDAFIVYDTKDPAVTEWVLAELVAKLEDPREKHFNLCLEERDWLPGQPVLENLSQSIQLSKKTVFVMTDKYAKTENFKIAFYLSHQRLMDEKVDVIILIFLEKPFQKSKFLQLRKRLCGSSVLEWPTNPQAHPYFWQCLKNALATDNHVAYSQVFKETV
Put plainly: HEK/293 TLR7 Cell Assay. The conditions noted are these: TLR7/NFKb HEK cells, R848 agonist 10 uM final concentration, Steady-Glo readout; read-out: TLR7 potency. Format: cell-based. An outline of the steps: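 Compounds added to HEK cells expressing TLR7 with an NFκB reporter 30 min ahead of 10 uM R848 challenge; luciferase signal (Steady-Glo) measured after 5 h, cells having been seeded 24 h earlier at 5000 per well.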

`C[C@H]1C[C@@H](NC(=O)CC2CCN(CCO)CC2F)CN(c2cnc(C#N)c3ncccc23)C1` (stereo partly drawn) [Example 148, N-[(3R,5S)-1-(8-Cyano-[1,7]naphthyridin-5-yl)-5-methyl-piperidin-3-yl]-2-[3-fluoro-1-(2-hydroxy-ethyl)-piperidin-4-yl]-acetamide]: the IC50 on TLR8 is below 75 nM; on TLR7, 75 to 150 nM.

As for `N#Cc1ccc(N2C[C@H](n3cccn3)C[C@H](C(F)(F)F)C2)c2nccnc12` (racemic) [Example 156, 8-[cis-3-(1H-pyrazol-1-yl)-5-(trifluoromethyl)piperidin-1-yl]quinoxaline-5-carbonitrile], the IC50 on TLR8 and at TLR7 was above 150 nM each time.

Consider `C[C@@H]1CN(c2cnc(C(F)(F)F)c3ncccc23)C[C@H](CN2CCN(C)CC2)O1` [Example 387, 5-[(2R,6S)-2-Methyl-6-(4-methyl-piperazin-1-ylmethyl)-morpholin-4-yl]-8-trifluoromethyl-[1,7]naphthyridine], for which the IC50 at TLR8 and at TLR7 was 75 to 150 nM in each case.

Consider `Cc1ccc(N2C[C@@H](C)C[C@@H](NC(=O)CC3(O)CCN(C)CC3)C2)c2cccnc12` [Example 85, 2-(4-hydroxy-1-methylpiperidin-4-yl)-N-[(3R,5S)-5-methyl-1-(8-methylquinolin-5-yl)piperidin-3-yl]acetamide hydrochloride], for which the IC50 at TLR8 and on TLR7 was below 75 nM each time.

Take `C[C@H]1C[C@@H](NCCNS(N)(=O)=O)CN(c2ccc(C(F)(F)F)c3ncccc23)C1` [Example 19]: the values for the IC50 on TLR8 and on TLR7 were below 75 nM and 75 to 150 nM, respectively.

`C[C@H]1C[C@@H](NC(=O)[C@H]2COCCN2)CN(c2ccc(C#N)c3nccnc23)C1` [Example 209, (3R)—N-[(3R,5S)-1-(8-cyanoquinoxalin-5-yl)-5-methylpiperidin-3-yl]morpholine-3-carboxamide]: the figures for the IC50 on TLR8 and on TLR7 were below 75 nM and 75 to 150 nM, respectively.

`C[C@H]1C[C@@H](NCCC2CS(=O)(=O)C2)CN(c2ccc(C#N)c3nccnc23)C1` [Example 43, 8-{(3R,5S)-3-[2-(1,1-Dioxo-1lambda6-thietan-3-yl)-ethylamino]-5-methyl-piperidin-1-yl}-quinoxaline-5-carbonitrile]: the IC50 on TLR8 and at TLR7 was below 75 nM throughout.

As to `C[C@@H]1CN(c2ccc(C#N)c3nccnc23)C[C@H](C(=O)NCCN2CCOCC2)O1` [Example 265, (2R,6R)-4-(8-cyanoquinoxalin-5-yl)-6-methyl-N-[2-(morpholin-4-yl)ethyl]morpholine-2-carboxamide], the IC50 on TLR8 and on TLR7 was below 75 nM throughout.

As to `C[C@@H]1CN(c2ccc(C#N)c3nccnc23)C[C@H](C(=O)N2C[C@H](N)C[C@H](C(F)(F)F)C2)O1` [Example 295, 8-[(2R,6R)-2-((3R,5S)-3-Amino-5-trifluoromethyl-piperidine-1-carbonyl)-6-methyl-morpholin-4-yl]-quinoxaline-5-carbonitrile hydrochloride (2)], the IC50 on TLR8 and at TLR7 was below 75 nM each time.

Take `C[C@H]1C[C@@H](NC(=O)[C@@H]2CCCN2)CN(c2ccc(C#N)c3nccnc23)C1` [Example 175, (S)-Pyrrolidine-2-carboxylic acid [(3R,5S)-1-(8-cyano-quinoxalin-5-yl)-5-methyl-piperidin-3-yl]-amide]: the IC50 on TLR8 is below 75 nM; at TLR7 it was 75 to 150 nM.

Regarding `C[C@H]1C[C@@H](NCCN2CCOC2=O)CN(c2ccc(C(F)(F)F)c3ncccc23)C1` [Example 29, 3-{2-[(3R,5S)-5-Methyl-1-(8-trifluoromethyl-quinolin-5-yl)-piperidin-3-ylamino]-ethyl}-oxazolidin-2-one], the IC50 on TLR8 and at TLR7 was below 75 nM throughout.

Consider `C[C@H]1C[C@@H](NC(=O)[C@H](C)N2CCN(C)CC2)CN(c2ccc(C#N)c3nccnc23)C1` (single isomer, unassigned) [Example 91], for which the IC50 on TLR8 and at TLR7 was below 75 nM throughout.

Regarding `C[C@H]1C[C@@H](NCC2(O)CCOCC2)CN(c2ccc(C(F)(F)F)c3nccnc23)C1` [Example 26, 4-{[(3R,5S)-5-Methyl-1-(8-trifluoromethyl-quinoxalin-5-yl)-piperidin-3-ylamino]-methyl}-tetrahydro-pyran-4-ol], the IC50 on TLR8 and on TLR7 was below 75 nM throughout.

With “(2S,6S)-4-(8-cyanoquinolin-5-yl)-N-[(4-fluoro-1-methylpiperidin-4-yl)methyl]-6-(trifluoromethyl)morpholine-2-carboxamide [Example 316]”, the figures for the IC50 on TLR8 and at TLR7 were above 150 nM and 75 to 150 nM, respectively.

With `CC(C(=O)N[C@@H]1C[C@H](C)CN(c2ccc(C#N)c3ncncc23)C1)N1CCN(C)CC1` (single isomer, unassigned) [Example 96], the results for the IC50 on TLR8 and on TLR7 were above 150 nM and 75 to 150 nM, respectively.

Regarding `C[C@@H]1CN(c2ccc(C#N)c3nccnc23)C[C@H](C(=O)NC[C@@H](C)O)O1` [Example 238, (2R,6R)-4-(8-Cyano-quinoxalin-5-yl)-6-methyl-morpholine-2-carboxylic acid ((R)-2-hydroxy-propyl)-amide], the IC50 at TLR8 and at TLR7 was below 75 nM throughout.

On to `N#Cc1ccc(N2C[C@H](NC(=O)C(O)CO)C[C@H](C(F)(F)F)C2)c2cccnc12` (stereo partly drawn) [Example 60, N-[(3R,5S)-1-(8-Cyano-quinolin-5-yl)-5-trifluoromethyl-piperidin-3-yl]-2,3-dihydroxy-propionamide], for which the IC50 at TLR8 and on TLR7 was below 75 nM throughout.

For the compound `Cc1c(F)cc(N2C[C@H](NC(=O)CC3(O)CCN(C)CC3)C[C@H](C(F)(F)F)C2)c2cccnc12` [Example 68, hydrochloride], the IC50 on TLR8 and at TLR7 was below 75 nM throughout.

Turning to “(2S)—N-[(3R,5S)-5-amino-1-(8-cyanoquinazolin-5-yl)piperidin-3-yl]-2-(4-methylpiperazin-1-yl)propanamide [Example 97]”, the figures for the IC50 on TLR8 and at TLR7 were above 150 nM and below 75 nM, respectively.

Regarding `C[C@@H]1CN(c2ccc(C(F)(F)F)c3ncccc23)C[C@H](CN2CCC(C(C)(C)O)C2)O1` (stereo partly drawn) [Example 331, 2-{1-[(2S,6R)-6-Methyl-4-(8-trifluoromethyl-quinolin-5-yl)-morpholin-2-ylmethyl]-pyrrolidin-3-yl}-propan-2-ol], the IC50 on TLR8 was 75 to 150 nM; at TLR7, below 75 nM.

As to `N#Cc1ccc(N2C[C@@H](C(F)(F)F)O[C@@H](C(=O)NC[C@H](O)CO)C2)c2nccnc12` (single isomer, unassigned) [Example 280], the values for the IC50 on TLR8 and on TLR7 were above 150 nM and 75 to 150 nM, respectively.
